Data: patent US6818445B2 (Synaptic Pharmaceutical Corporation, priority 1994, dated 2004)

How the values were obtained:
5HT1a receptor = target: T1, 5HT1a receptor (Homo sapiens, UniProt P08908); experiment: Binding to cloned human 5HT1a receptor
T1 sequence (P08908 1-422): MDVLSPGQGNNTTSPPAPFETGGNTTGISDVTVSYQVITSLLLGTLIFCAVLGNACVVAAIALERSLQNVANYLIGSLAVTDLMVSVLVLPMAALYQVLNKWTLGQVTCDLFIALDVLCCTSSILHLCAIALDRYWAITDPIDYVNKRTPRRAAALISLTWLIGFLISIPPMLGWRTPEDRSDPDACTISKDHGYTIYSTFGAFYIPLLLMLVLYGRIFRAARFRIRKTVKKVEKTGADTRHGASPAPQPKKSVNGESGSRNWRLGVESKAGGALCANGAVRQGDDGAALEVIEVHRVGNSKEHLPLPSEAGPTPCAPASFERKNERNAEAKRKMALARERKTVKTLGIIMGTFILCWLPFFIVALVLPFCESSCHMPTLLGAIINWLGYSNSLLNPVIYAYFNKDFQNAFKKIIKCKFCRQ

human Y2 receptor = target: T2, human Y2 receptor (Homo sapiens, UniProt P49146); type: binding; settings: read-out: Binding Affinity (Ki (nM) vs. ^125I-PYY) Human Receptor Y2; Table 14
T2 sequence (P49146 1-381): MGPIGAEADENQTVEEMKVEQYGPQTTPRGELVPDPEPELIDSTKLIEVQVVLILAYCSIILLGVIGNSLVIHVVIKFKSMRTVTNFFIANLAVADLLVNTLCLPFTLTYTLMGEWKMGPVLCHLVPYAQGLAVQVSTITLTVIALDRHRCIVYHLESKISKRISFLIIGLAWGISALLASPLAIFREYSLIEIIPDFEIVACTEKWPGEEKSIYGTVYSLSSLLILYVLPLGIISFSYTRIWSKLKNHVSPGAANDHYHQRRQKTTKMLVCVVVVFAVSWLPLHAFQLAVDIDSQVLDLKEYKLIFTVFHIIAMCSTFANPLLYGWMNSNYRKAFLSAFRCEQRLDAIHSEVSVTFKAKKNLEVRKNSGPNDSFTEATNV

[1] = target: human dopamine D3 receptor (Homo sapiens, UniProt P35462); experiment: Binding to human dopamine D3 receptor, [3H]spiperone; settings: cloned human receptor
human dopamine D3 receptor, sequence (P35462 whole entry): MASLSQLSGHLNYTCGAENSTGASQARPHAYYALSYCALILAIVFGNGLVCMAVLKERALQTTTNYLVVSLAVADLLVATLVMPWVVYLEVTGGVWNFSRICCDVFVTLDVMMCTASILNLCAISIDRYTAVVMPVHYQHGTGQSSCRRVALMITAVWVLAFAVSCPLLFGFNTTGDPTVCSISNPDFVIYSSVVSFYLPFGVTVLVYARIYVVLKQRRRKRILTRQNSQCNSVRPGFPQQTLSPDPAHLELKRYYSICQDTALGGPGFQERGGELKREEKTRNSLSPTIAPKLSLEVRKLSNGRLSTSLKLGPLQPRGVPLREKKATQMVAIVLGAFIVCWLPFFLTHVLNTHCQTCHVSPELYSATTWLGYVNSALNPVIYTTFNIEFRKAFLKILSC

human α2B receptor = target: T3, human α2B receptor (Homo sapiens, UniProt P18089); experiment: Binding to cloned human α2B adrenergic receptor, [3H]rauwolscine
T3 sequence (P18089 1-450): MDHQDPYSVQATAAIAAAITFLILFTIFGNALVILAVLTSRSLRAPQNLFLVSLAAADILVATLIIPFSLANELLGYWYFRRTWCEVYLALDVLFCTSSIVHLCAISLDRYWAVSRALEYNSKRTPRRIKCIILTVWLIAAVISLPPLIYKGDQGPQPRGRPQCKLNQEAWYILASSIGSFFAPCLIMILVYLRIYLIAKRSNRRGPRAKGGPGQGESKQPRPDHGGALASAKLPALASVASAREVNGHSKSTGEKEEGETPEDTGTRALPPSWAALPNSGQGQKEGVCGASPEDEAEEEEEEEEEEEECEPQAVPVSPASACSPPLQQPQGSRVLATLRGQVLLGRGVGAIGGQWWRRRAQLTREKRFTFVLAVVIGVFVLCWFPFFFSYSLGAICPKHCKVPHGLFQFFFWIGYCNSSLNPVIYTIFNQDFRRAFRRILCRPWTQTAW

[2] = system: NPY-induced feeding behavior in satiated rats; experiment: NPY-induced food intake in satiated rats; type: in vivo, rat; settings: compound 30 mg/kg i.p., then 300 pmole NPY i.c.v.; 4 hours after NPY
Method: The rats are individually housed in stainless steel cages and maintained on an 11:13 h light-dark cycle (lights off at 18:00 h) at a controlled temperature of 21-23° C. at all times. Water and food (NAFAG lab chow pellets NAFAG, Gossau, Switzerland) are available ad libidum.
The guide cannula is placed on the dura. Injection cannulas extend the guide cannulas −3.8 mm ventrally to the skull surface. Animals are allowed at least 4 days of recovery postoperatively before being used in the experiments. Cannula placement is checked postoperatively by testing all rats for their drinking response to a 50 ng intracerebroventricular (i.c.v.) injection of angiotensin II. Only rats which drink at least 2.5 ml of water within 30 min. after angiotensin II injection are used in the feeding studies.
All injections are made in the morning 2 hours after light onset. Peptides are injected in artificial cerebrospinal fluid (ACSF) in a volume of 5 μl.
Pellets are then removed from the cage subsequently at each selected time point and replaced with a new set of preweighed pellets. The food intake of animals treated with test compound may be calculated as a percentage of the food intake of control animals i.e., animals treated with vehicle. Alternatively, food intake for each group of animals subjected to a particular experimental condition may be expressed as the mean±S.E.M. Statistical analysis is performed by analysis of variance using the Student-Newman-Keuls test.
Food intake is reported as the mean±S.E.M. intake for a group of animals.

human 5HT2 receptor = human 5HT2 receptor (Homo sapiens, UniProt P28223); experiment: Binding to human 5HT2 receptor, [3H]ketanserin; settings: cloned human receptor
human 5HT2 receptor, sequence (P28223 whole entry): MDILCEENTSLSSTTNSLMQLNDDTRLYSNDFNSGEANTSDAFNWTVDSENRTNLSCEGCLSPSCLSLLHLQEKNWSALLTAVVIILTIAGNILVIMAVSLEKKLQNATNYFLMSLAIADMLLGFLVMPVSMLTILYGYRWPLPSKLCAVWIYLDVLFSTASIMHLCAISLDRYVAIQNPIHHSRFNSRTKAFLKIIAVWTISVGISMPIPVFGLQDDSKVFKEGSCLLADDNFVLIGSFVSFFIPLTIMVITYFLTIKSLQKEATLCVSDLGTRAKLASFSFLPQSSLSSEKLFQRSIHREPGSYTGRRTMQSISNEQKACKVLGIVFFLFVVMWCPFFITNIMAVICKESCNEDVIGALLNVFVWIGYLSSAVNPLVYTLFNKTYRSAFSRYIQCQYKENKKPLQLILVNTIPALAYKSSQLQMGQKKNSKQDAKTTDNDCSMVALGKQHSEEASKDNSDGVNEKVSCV

human 5HT1Dβ receptor = human 5HT1Dβ receptor (Homo sapiens, UniProt P28222); experiment: Binding to human 5HT1Dβ receptor, [3H]serotonin; settings: cloned human receptor
human 5HT1Dβ receptor, sequence (P28222 whole entry): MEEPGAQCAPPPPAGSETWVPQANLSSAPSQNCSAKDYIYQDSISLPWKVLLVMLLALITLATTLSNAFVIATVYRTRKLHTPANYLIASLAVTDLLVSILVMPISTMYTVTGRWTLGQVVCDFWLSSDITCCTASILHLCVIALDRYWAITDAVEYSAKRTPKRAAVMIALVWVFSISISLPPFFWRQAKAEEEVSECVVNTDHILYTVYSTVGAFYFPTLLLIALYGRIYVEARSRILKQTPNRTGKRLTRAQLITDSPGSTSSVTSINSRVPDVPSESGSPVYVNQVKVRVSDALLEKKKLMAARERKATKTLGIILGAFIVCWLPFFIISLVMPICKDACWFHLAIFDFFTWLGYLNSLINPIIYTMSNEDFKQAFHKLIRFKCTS

human α2C receptor = target: T4, human α2C receptor (Homo sapiens, UniProt P18825); experiment: Binding to cloned human α2C adrenergic receptor, [3H]rauwolscine
T4 sequence (P18825 1-462): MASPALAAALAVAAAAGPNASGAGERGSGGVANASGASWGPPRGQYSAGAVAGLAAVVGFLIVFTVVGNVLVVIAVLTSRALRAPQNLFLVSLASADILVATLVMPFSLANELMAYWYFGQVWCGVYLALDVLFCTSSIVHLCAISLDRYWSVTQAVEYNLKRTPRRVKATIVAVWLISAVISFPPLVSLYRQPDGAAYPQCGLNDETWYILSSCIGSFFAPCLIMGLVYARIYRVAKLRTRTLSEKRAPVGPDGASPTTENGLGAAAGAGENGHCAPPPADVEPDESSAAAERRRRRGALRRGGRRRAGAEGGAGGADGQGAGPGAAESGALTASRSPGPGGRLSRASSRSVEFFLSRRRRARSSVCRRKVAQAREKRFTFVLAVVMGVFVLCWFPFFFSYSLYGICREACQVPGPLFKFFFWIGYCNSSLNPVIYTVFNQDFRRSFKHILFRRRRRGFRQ

Structure (SMILES)	Receptor (pKi) 5HT1a (5HT1a receptor)	Ki (human Y2 receptor)	Receptor (pKi) D3 [1]	Receptor (pKi) α2b (human α2B receptor)	Food intake (g) mean ± S.E.M., NPY + compound [2]	Receptor (pKi) 5HT2 (human 5HT2 receptor)	Receptor (pKi) 5HT1Dβ (human 5HT1Dβ receptor)	Receptor (pKi) α2c (human α2C receptor)
Cl.O=S(=O)(NC[C@H]1CC[C@H](CNCC2CCc3ccccc3C2)CC1)c1cccc2ccccc12 (stereo partly drawn) [Compound 19]	5.54	955 nM	6.69	6.58	1.5 ± 0.6 g	6.55		
Cl.O=[N+]([O-])c1ccccc1S(=O)(=O)NC[C@H]1CC[C@H](CNCC2CCc3ccccc3C2)CC1 (stereo partly drawn) [Compound 20]		7760 nM	6.35	6.96		5.93	5.37	7.39
Cl.Cl.Nc1ccccc1S(=O)(=O)NCC1CCC(CNCC2CCc3ccccc3C2)CC1 (stereo not drawn) [Compound 22]	6.56	7570 nM		6.43		5.99	5.41	7.15
